From patent US10766896B2, “Imidazo[4,5-c] ring compounds containing guanidine substituted benzamide groups” (3M INNOVATIVE PROPERTIES COMPANY, priority 2017, dated 2020)
Structures can show the parent of a compound that is named as a salt.

System: Human peripheral blood mononuclear cells (PBMC)
Test: Cytokine Induction in Human Cells (PBMC; IFN-alpha by ELISA, IFN-gamma and TNF-alpha by multiplex bead assay)
Assay type: cell-based
Details: 21-24 hrs culture, lowest concentration inducing cytokine at least 2× greater than negative control; for MEC to Induce Cytokine IFN-alpha: ELISA; for MEC to Induce Cytokine IFN-gamma / MEC to Induce Cytokine TNF-alpha: multiplex bead assay
Description: Interferon-alpha (IFN-alpha), interferon-gamma (IFN-gamma) and tumor necrosis factor-alpha (TNF-alpha) cytokine levels (pg/mL) were measured using the procedure ‘Cytokine Induction of Human Cells’ described below. The only difference was that for Examples 2, 3, and 4 the diluted compounds were transferred to the PBMCs to achieve final compound concentrations of 100, 33.3, 11.1, 3.7, 1.23, and 0.41 micromolar. The positive control wells contained imiquimod serially diluted to concentrations of 100, 33.3, 11.1, 3.7, 1.23, and 0.41 micromolar. For Example 5, the diluted compound and positive control (imiquimod) were individually transferred to the PBMCs to achieve final concentrations of 30, 10, 3.3, 1.1, 0.37, 0.12, 0.04, and 0.01 micromolar. According to the procedure described below, IFN-alpha cytokine levels (pg/mL) were measured by using the ELISA assay (human IFN-α, pan specific, Mabtech, Cincinnati, Ohio). IFN-gamma and TNF-alpha levels (pg/mL) were measured by using the multiplex bead assay (magnetic beads, R & D Systems Minneapolis, Minn.) according to the manufacturer's instructions. […] Specifically, the minimum effective concentration of each compound (micromolar) was determined as the lowest concentration of the compound that induced a measured cytokine response at a level ([…]) that was at least 2× greater than that observed with the negative control wells.
Cytokine Induction in Human Cells
Whole blood can be obtained from healthy human donors and collected by venipuncture into vacutainer tubes or syringes containing EDTA. Human peripheral blood mononuclear cells (PBMC) are purified from the whole blood by density gradient centrifugation. Histopaque 1077 (15 mL, Sigma, St. Louis, Mo.) is transferred to 6×50 mL sterile polypropylene conical tubes. The Histopaque is overlayed with 15-25 mL of blood diluted 1:2 in Hank's Balanced Salts Solution (HBSS) (Gibco, Life Technology, Grand Island N.Y.). The tubes are then centrifuged at 1370 rpm for 30 minutes at 20° C., with no brake (400×g, GH 3.8A Rotor).
The interface (buffy coat) containing the PBMC is collected and placed in a new sterile 50 mL conical polypropylene centrifuge tube. The PBMC are mixed with an equal volume of HBSS about 20 mL from the interface and about 20 mL of HBSS), and then centrifuged at 1090 rpm, 10 min, 20° C., with brake (270×g, GH 3.8A Rotor). After completing centrifugation, the cells are resuspended in 2-3 mL ACK Red blood cell lysis buffer (ammonium chloride potassium solution, Gibco, Life Technology) and incubated for 2-5 minutes at 20° C. Next, HBSS (40 mL) is added to the cells, and the sample is centrifuged at 270×g for 10 min at 20° C. The supernatant is decanted, and the cell pellet is resuspended in 5 mL AIM V® Medium (Gibco, Life Technology). Cell aggregates and debris are removed by filtering the cell solution through a BD Falcon 70 micron nylon cell strainer (BD Biosciences, San Jose, Calif.).
The number of viable cells is determined by counting with a Miltenyi FACS instrument (Miltenyi Biotec Inc., San Diego, Calif.) or by using a hemacytometer. For determining cell viability with a hemacytometer, the cells are diluted 1/10 in 0.4% trypan blue and HBSS (specifically, 50 microliter of trypan blue+40 microliter of HBSS+10 microliter of cell solution are added to a microfuge tube and mixed). Ten microliters of the diluted cells are then applied to the hemacytometer, and the number of viable PBMC are determined by microscopy.
The PBMC sample is then resuspended in 96-well plates at a concentration of 8×10^5 cells/well in 0.1 mL of AIM-V medium. Each compound is solubilized in DMSO to create a 3 mM stock solution. The stock solution is then further diluted with AIM-V medium to prepare the serial dilutions. The diluted compound (100 microliters) is then transferred to the PBMCs to achieve final compound concentrations of 10, 1, 0.1, 0.01, 0.001, 0.0001 micromolar. The plates also have both positive and negative controls. […]

SMILES | MEC to Induce Cytokine IFN-alpha | MEC to Induce Cytokine IFN-gamma | MEC to Induce Cytokine TNF-alpha
CCCc1nc2c(N)nc3ccccc3c2n1CCCCNC(=O)c1ccc(CNC(=N)N)cc1 [Example 3, N-[4-(4-amino-2-propyl-imidazo[4,5-c]quinolin-1-yl)butyl]-4-(guanidinomethyl)benzamide dihydrochloride] | 3.7 µM | 3.7 µM | 3.7 µM
CCCCc1nc2c(N)nc3ccccc3c2n1CCOCCNC(=O)c1ccc(CNC(=N)N)cc1 [Example 2, N-[2-[2-(4-amino-2-butyl-imidazo[4,5-c]quinolin-1-yl)ethoxy]ethyl]-4-(guanidinomethyl)benzamide dihydrochloride] | 1.2 µM | 1.2 µM | 3.7 µM
CCCCc1nc2c(N)nc3ccccc3c2n1CCCCNC(=O)c1ccc(NC(=N)N)cc1 [Example 4, N-[4-(4-amino-2-butyl-imidazo[4,5-c]quinolin-1-yl)butyl]-4-guanidinobenzamide dihydrochloride] | 0.4 µM | 3.7 µM | 1.2 µM
CCCCc1nc2c(N)nc3ccccc3c2n1CCCCNC(=O)c1ccc(CNC(=N)N)cc1 [Example 5, N-[4-(4-amino-2-butyl-imidazo[4,5-c]quinolin-1-yl)butyl]-4-(guanidinomethyl)benzamide dihydrochloride] | 0.37 µM | 1.1 µM | –
